Usually ED50 stands for the midpoint of the dose-response relation. By IC50 is commonly meant the concentration that gives 50% inhibition.

Where a name gives a salt, the structure may show the parent alone. Read-outs that look alike come from different tables or passages of the source. Some results are limits rather than exact numbers.

In test [1] the test system is Anxiety in the Adult Male Rat. As to the kind of experiment: Suppression of Anxiety in the Adult Male Rat (rat conflict test). In kind it is in vivo, rats. The settings on record: Rattus norvegicus. In a few lines: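 Male rats, 48 h water- and 24 h food-deprived, trained with 200 unpunished licks, tested at expected peak drug activity. Every 20th lick punished by 0.2-s shock over a 3-min session; increase in median shocks versus concurrent vehicle assessed by one-tailed Mann-Whitney test (p<0.05), validated with a positive-control anxiolytic.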

Test [2] has as its system metrazol-induced convulsions. As to the kind of experiment: Suppression of Metrazol-Induced Convulsions in Adult Male Mice. The settings on record: Mus musculus, ip. Type of test: in vivo.
Test [3] addresses benzodiazepine site of the GABA-A receptor. As to the kind of experiment: Benzodiazepine Receptor Binding Assay (inhibition of 3H-flunitrazepam binding). The settings on record: read-out: GABAA Receptor Binding IC50.
Test [4] has as its system metrazol-induced convulsions. Briefly: Suppression of Metrazol-Induced Convulsions in Adult Male Mice. In kind it is in vivo. The settings on record: Mus musculus, po.
[5] abbreviates: ip, rat, ip, read-out: Rat Conflict (MED, mg/kg) ip.
Where [6] appears, read: po, minimum effective dose, increase in shocks tolerated, >10 = active dose not determined, read-out: Rat Conflict (MED, mg/kg) po.
[7] abbreviates: block of clonic convulsions, male CD1 mice, >30 = active dose not determined.
The mark [8] stands for this setting: inhibition of 3H-flunitrazepam (ca. 3 nM) binding to membranes, 25°C, over 10,000 = not active.
Setting [9] is: po, rat, po, read-out: Rat Conflict (MED, mg/kg) po.

On to `O=C1CCN2C(=C1C(=O)Nc1cccnc1)N(CCOCc1ccccc1)c1cc(F)ccc12` [Compound 165], for which, in test [1] (setting [5]), the minimal effective dose is over 7 mg/kg. Also, the 50% effective dose (ED50) in test [2] (mouse) is 3 mg/kg; in test [4] (mouse), over 30 mg/kg. Moreover, the IC50 in test [3] was 39.2 nM.
For `CN(CCN1C2=C(C(=O)Nc3ccccc3F)C(=O)CCN2c2ccc(F)cc21)S(=O)(=O)C(F)(F)F` [Compound 37], the minimal effective dose in test [1] (setting [6]) was over 10 mg/kg. Moreover, the ED50 in test [2] (setting [7]) was over 1 mg/kg; in test [4] (setting [7]), over 30 mg/kg. In test [3] (setting [8]), the half-maximal inhibitory concentration (IC50) was determined as 18.3 nM.
For the molecule `O=C1CCN2C(=C1C(=O)Nc1ccccc1F)N(CC1CCOC1)c1cc(F)ccc12` (stereo not shown) [Compound 174], in test [1] (setting [9]), the minimal effective dose worked out at 3 mg/kg. In addition, the ED50 in test [2] (mouse) was under 1 mg/kg; in test [4] (mouse), under 3 mg/kg. Further, the IC50 in test [3] was determined as 2.28 nM.
On to `CN(C)CCN1C2=C(C(=O)Nc3ccccc3F)C(=O)CCN2c2ccc(F)cc21` [Compound 74, 7-Fluoro-1,2-dihydro-5-(2-dimethylaminoethyl)-3-oxo-N-(2-fluorophenyl)pyrido[1,2-a]benzimidazole-4-carboxamide hydrochloride hydrate (4:4:1)], for which the figures for the minimal effective dose in test [1] (setting [5]) and in test [1] (setting [9]) were under 10 mg/kg and 3 mg/kg, respectively. Further, the ED50 in test [2] (mouse) was 0.5 mg/kg; in test [4] (mouse), under 3 mg/kg. Moreover, in test [3], the IC50 amounted to 49.9 nM.
For the molecule `COc1cccc(NC(=O)C2=C3N(CC#N)c4ccccc4N3CCC2=O)c1` [Compound 90], in test [1] (setting [6]), the minimal effective dose is 1 mg/kg. The ED50 was under 1 mg/kg in test [2] (setting [7]) and 0.5 mg/kg in test [4] (setting [7]). In addition, the IC50 in test [3] (setting [8]) turned out to be 6.04 nM.
The corresponding values for `CCN(C)CCN1C2=C(C(=O)Nc3ccccc3F)C(=O)CCN2c2ccc(F)cc21` [Compound 41] are 10 mg/kg, 3 mg/kg, about 10 mg/kg and 9.8 nM.
As to `CCOC(CCN1C2=C(C(=O)Nc3ccccc3F)C(=O)CCN2c2ccc(F)cc21)OCC` [Compound 154], the minimal effective dose in test [1] (setting [9]) is 3 mg/kg. The ED50 in test [2] (mouse) was under 1 mg/kg; in test [4] (mouse), about 3 mg/kg. Besides, the IC50 in test [3] worked out at 6.98 nM.
On to `O=C1CCN2C(=C1C(=O)Nc1ccccc1F)N(CCN(Cc1ccccc1)Cc1ccccc1)c1cc(F)ccc12` [Compound 64], for which, in test [1] (setting [5]), the minimal effective dose was over 10 mg/kg. In addition, the figures for the ED50 in test [2] (mouse) and in test [4] (mouse) were 3 mg/kg and over 30 mg/kg, respectively. Further, the IC50 in test [3] was determined as 3.02 nM.
As for `O=C1CCN2C(=C1C(=O)Nc1ccccc1F)N(CC1CCCO1)c1cc(F)ccc12` (stereo not shown) [Compound 175], the minimal effective dose in test [1] (setting [9]) is over 10 mg/kg. Besides, the ED50 in test [2] (mouse) was under 1 mg/kg; in test [4] (mouse) it was 2 mg/kg. In addition, the IC50 in test [3] is 1.5 nM.
As to `COC(=O)OCCN1C2=C(C(=O)Nc3ccccc3F)C(=O)CCN2c2ccc(F)cc21` [Compound 114, 7-Fluoro-1,2-dihydro-5-[2-(methoxycarbonyloxy)ethyl]-3-oxo-N-(2-fluorophenyl)pyrido[1,2-a]benzimidazole-4-carboxamide], the minimal effective dose in test [1] (setting [9]) came to 3 mg/kg. In addition, the ED50 in test [2] (mouse) is under 1 mg/kg; in test [4] (mouse), at most 3 mg/kg. Besides, in test [3], the IC50 was determined as 0.3 nM.
Taken in the same sequence, the figures for `O=C(O)CN1C2=C(C(=O)Nc3ccccc3F)C(=O)CCN2c2ccc(F)cc21` [Compound 177] were over 10 mg/kg, over 1 mg/kg, over 30 mg/kg and 54.8 nM.
For the molecule `O=C(CN1C2=C(C(=O)Nc3ccccc3F)C(=O)CCN2c2ccc(F)cc21)Nc1ccccc1F` [Compound 61, 7-Fluoro-1,2-dihydro-5-[N-(2-fluorophenyl)-2-acetamido]-3-oxo-N-(2-fluorophenyl)pyrido[1,2-a]benzimidazole-4-carboxamide], in test [1] (setting [5]), the minimal effective dose was over 10 mg/kg. Further, the ED50 in test [2] (mouse) is under 1 mg/kg; in test [4] (mouse), 30 mg/kg. In test [3], the 50% inhibitory concentration (IC50) came out at 6.32 nM.
Take `COCN1C2=C(C(=O)Nc3ccccc3F)C(=O)CCN2c2ccc(F)cc21` [Compound 158]: the results for the minimal effective dose in test [1] (setting [5]) and in test [1] (setting [9]) were under 10 mg/kg and 3 mg/kg, respectively. Also, the figures for the median effective dose (ED50) in test [2] (mouse) and in test [4] (mouse) were 0.01 mg/kg and 0.1 mg/kg, respectively. For the same molecule, the IC50 in test [3] was 0.15 nM.
`CCOCN1C2=C(C(=O)Nc3ccc(F)cc3F)C(=O)CCN2c2ccc(F)cc21` [Compound 123]: the minimal effective dose in test [1] (setting [5]) was at most 0.1 mg/kg; in test [1] (setting [9]) it was 0.1 mg/kg. Also, the median effective dose (ED50) in test [2] (mouse) was under 1 mg/kg; in test [4] (mouse) it was under 3 mg/kg. In test [3], the half-inhibitory concentration (IC50) was 1.19 nM.
Take `CN1CCCC(N2C3=C(C(=O)Nc4ccccc4F)C(=O)CCN3c3ccc(F)cc32)C1` (stereo not shown) [Compound 87]: the minimal effective dose is over 10 mg/kg in test [1] (ip, minimum effective dose, increase in shocks tolerated, >10 = active dose not determined, read-out: Rat Conflict (MED, mg/kg) ip) and over 10 mg/kg in test [1] (setting [6]). Moreover, the ED50 turned out to be 3 mg/kg in test [2] (setting [7]) and 10 mg/kg in test [4] (setting [7]). In test [3] (setting [8]), the IC50 was found to be 30.7 nM.
With `COCCN1C2=C(C(=O)Nc3ccc(Cl)cc3)C(=O)CCN2c2ccccc21` [Compound 156], the minimal effective dose in test [1] (setting [9]) is 1 mg/kg. Further, the median effective dose (ED50) in test [2] (mouse) was under 1 mg/kg; in test [4] (mouse), about 2 mg/kg. The IC50 in test [3] amounted to 16 nM.
Take `COCCN1C2=C(C(=O)Nc3c(F)cccc3F)C(=O)CCN2c2ccccc21` [Compound 151]: the minimal effective dose in test [1] (setting [9]) turned out to be 10 mg/kg. For the same molecule, the ED50 is under 1 mg/kg in test [2] (mouse) and about 2 mg/kg in test [4] (mouse). For the same molecule, the IC50 in test [3] was 4.64 nM.
Consider `COCCN1C2=C(C(=O)Nc3ccc(OC)cc3)C(=O)CCN2c2ccc(F)cc21` [Compound 106], for which, in test [1] (setting [9]), the minimal effective dose worked out at 1 mg/kg. The ED50 was under 1 mg/kg in test [2] (mouse) and 0.3 mg/kg in test [4] (mouse). Besides, the IC50 in test [3] turned out to be 4.47 nM.
Taken in the same sequence, the figures for `CCOCCCN1C2=C(C(=O)Nc3ccccc3F)C(=O)CCN2c2ccc(F)cc21` [Compound 152] were 1 mg/kg, under 1 mg/kg, about 0.3 mg/kg and 0.28 nM.
Taken in the same sequence, the figures for `CCOCN1C2=C(C(=O)Nc3ccc(OC)cc3)C(=O)CCN2c2ccc(F)cc21` [Compound 104] were 0.1 mg/kg, under 1 mg/kg, under 3 mg/kg and 1.04 nM.
With `CC(=O)NCCN1C2=C(C(=O)Nc3ccccc3F)C(=O)CCN2c2ccc(F)cc21` [Compound 53], the minimal effective dose in test [1] (setting [5]) was over 10 mg/kg. Moreover, the ED50 in test [2] (mouse) was 7 mg/kg; in test [4] (mouse) it was 30 mg/kg. For the same molecule, in test [3], the IC50 is 5.47 nM.
